# From the supplement of paper PMC11208160
# Assay: recombinant barcode read abundance after kanamycin selection (control-corrected) (log10(CPM+1)); higher = more efficient recombination; sequences stand for … in AGTGCAGAGAAAATCGGCCAGTTTTCTCTGCCTGCAGTCCGCATGCCGT…AGATTTATGCAGCGGACTGCCTTTCTCCCAAAGTGATAAACCGGACAGTATCATGGACCGGTTTTCCCGGTAATCCGTATTTGCAAGGTTGGTTTCACT; site = the 11-nt target
# In short: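 Recombination efficiency in this pooled E. coli screen uses counts per million of barcodes at recombinant junctions, averaged and corrected against the control. The reported form is log10(CPM+1). Two replicates were plated on chloramphenicol/ampicillin LB agar as control and two on chloramphenicol/ampicillin/kanamycin with 0.1 mM IPTG.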
# 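Also: IS621 recombinase and bridge RNA in Escherichia coli cells.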
row,Sequence,recombinant barcode read abundance (log10)
1,TAGAACCCTTGGGTTCTAACCTGTTGCTT (site TAGAACCCTAA),0.367
2,TAGAACCCTTGGGTTCTAACCTGTTGCTT (site TAGATCCCTAA),0.0967
3,TAGAACTCTTGGGTTCTAACCTGTTGCCC (site TAGAACTCTAG),0.296
4,TAGAACTCTTGGGTTCTAACCTGTTGCCC (site TAGAACTCTCG),0.0614
5,TAGAACTCTTGGGTTCTAACCTGTTGCCC (site TAGAACTCTGG),0.427
6,TAGAACTCTTGGGTTCTAACCTGTTGCCC (site TAGAACTCTTG),0.0327
7,TAGAACTCTTGGGTTCTAACCTGTTGCGC (site ACATTTCCTAT),0.0572
8,TAGAACTCTTGGGTTCTAACCTGTTGCGC (site TAGAACTCTGC),1
9,TAGAAGCCTTGGGTTCTAACCTGTTGCCG (site TACAAGCCTAG),0.0659
10,TAGAAGCCTTGGGTTCTAACCTGTTGCCG (site TAGAAGCCTCG),1.62
11,TAGAAGGCTTGGGTTCTAACCTGTTGCGT (site TAGAAGGCTAA),0.445
12,TAGAAGGCTTGGGTTCTAACCTGTTGCGT (site TAGAAGGCTAC),2.75
13,TAGAAGGCTTGGGTTCTAACCTGTTGCGT (site TAGAAGGCTAG),0.273
14,TAGAAGGCTTGGGTTCTAACCTGTTGCGT (site TAGAAGGCTAT),1.96
15,TAGAATGCTTGGGTTCTAACCTGTTGCTT (site TAGAATGCTAA),0.285
16,TAGAATGCTTGGGTTCTAACCTGTTGCTT (site TAGAATGCTAG),0.148
17,TAGACATCTTGGGTTCTAACCTGTTGCAT (site AAGACATCTAA),0.133
18,TAGACATCTTGGGTTCTAACCTGTTGCAT (site TAGACATCTAT),0.353
19,TAGACCACTTGGGTTCTAACCTGTTGCAC (site CTATATGCTAA),0.0777
20,TAGACCACTTGGGTTCTAACCTGTTGCAC (site TAGACCACTGT),0.954
21,TAGAGAGCTTGGGTTCTAACCTGTTGCGG (site TAAAGAGCTCC),1.57
22,TAGAGAGCTTGGGTTCTAACCTGTTGCGG (site TACAGAGCTCC),0.202

row,Sequence,recombinant barcode read abundance (log10)
1,TAGAGAGCTTGGGTTCTAACCTGTTGCGG (site TAGAGAGCTCC),2.09
2,TAGAGAGCTTGGGTTCTAACCTGTTGCGG (site TATAGAGCTCC),0.356
3,TAGAGCTCTTGGGTTCTAACCTGTTGCTG (site TAGAGCTCTCA),0.75
4,TAGAGCTCTTGGGTTCTAACCTGTTGCTG (site TAGTGCTCTGA),0.0075
5,TAGATAACTTGGGTTCTAACCTGTTGCTG (site ACCCATTCTAC),0
6,TAGATAACTTGGGTTCTAACCTGTTGCTG (site TAGATAACTCA),1.02
7,TAGCACTCTTGGGTTCTAACCTGTTGCAG (site AAGCACCCTCT),0.0429
8,TAGCACTCTTGGGTTCTAACCTGTTGCAG (site TAGCACTCTCT),2.08
9,TAGCATACTTGGGTTCTAACCTGTTGCCC (site TAGCATACTAG),0.329
10,TAGCATACTTGGGTTCTAACCTGTTGCCC (site TAGCATACTCG),0.266
11,TAGCATACTTGGGTTCTAACCTGTTGCCC (site TAGCATACTGG),0.941
12,TAGCATACTTGGGTTCTAACCTGTTGCCC (site TAGCATACTTG),0.187
13,TAGCATGCTTGGGTTCTAACCTGTTGCAG (site TAGCATGCTAT),0.0261
14,TAGCATGCTTGGGTTCTAACCTGTTGCAG (site TAGCATGCTCT),1.44
15,TAGCATGCTTGGGTTCTAACCTGTTGCAG (site TAGCATGCTGT),0.0603
16,TAGCATGCTTGGGTTCTAACCTGTTGCAG (site TAGCATGCTTT),0.017
17,TAGCATGCTTGGGTTCTAACCTGTTGCAT (site TAGCATGCTAT),0.434
18,TAGCATGCTTGGGTTCTAACCTGTTGCAT (site TAGCATGCTCT),0.204
19,TAGCATGCTTGGGTTCTAACCTGTTGCAT (site TAGCATGCTGT),0.228
20,TAGCATGCTTGGGTTCTAACCTGTTGCAT (site TAGCATGCTTT),0.065
21,TAGCCATCTTGGGTTCTAACCTGTTGCTC (site TAGACATCTGA),0.0329
22,TAGCCATCTTGGGTTCTAACCTGTTGCTC (site TAGCCATCTGA),0.508

row,Sequence,recombinant barcode read abundance (log10)
1,TAGCCATCTTGGGTTCTAACCTGTTGCTC (site TAGGCATCTGA),0.404
2,TAGCCATCTTGGGTTCTAACCTGTTGCTC (site TAGTCATCTGA),0
3,TAGCCTACTTGGGTTCTAACCTGTTGCGG (site TAGCCTACTAC),0.0228
4,TAGCCTACTTGGGTTCTAACCTGTTGCGG (site TAGCCTACTCC),1.41
5,TAGCCTACTTGGGTTCTAACCTGTTGCGG (site TAGCCTACTGC),0.0519
6,TAGCCTACTTGGGTTCTAACCTGTTGCGG (site TAGCCTACTTC),0.00783
7,TAGCCTGCTTGGGTTCTAACCTGTTGCCT (site TAGACTGCTAG),0.0305
8,TAGCCTGCTTGGGTTCTAACCTGTTGCCT (site TAGCCTGCTAG),1.35
9,TAGCCTGCTTGGGTTCTAACCTGTTGCCT (site TAGGCTGCTAG),0.026
10,TAGCCTGCTTGGGTTCTAACCTGTTGCCT (site TAGTCTGCTAG),0.177
11,TAGCGCACTTGGGTTCTAACCTGTTGCGG (site TAGCACACTCC),0.28
12,TAGCGCACTTGGGTTCTAACCTGTTGCGG (site TAGCCCACTCC),0.076
13,TAGCGCACTTGGGTTCTAACCTGTTGCGG (site TAGCGCACTCC),1.33
14,TAGCGCACTTGGGTTCTAACCTGTTGCGG (site TAGCTCACTCC),0.13
15,TAGCGGCCTTGGGTTCTAACCTGTTGCCT (site TAACGGCCTAG),0.651
16,TAGCGGCCTTGGGTTCTAACCTGTTGCCT (site TACCGGCCTAG),0.0223
17,TAGCGGCCTTGGGTTCTAACCTGTTGCCT (site TAGCGGCCTAG),0.428
18,TAGCGGCCTTGGGTTCTAACCTGTTGCCT (site TATCGGCCTAG),0.0926
19,TAGCGTACTTGGGTTCTAACCTGTTGCGT (site TAGCGTACTAC),0.805
20,TAGCGTACTTGGGTTCTAACCTGTTGCGT (site TAGCGTACTCC),0.0572
21,TAGCTCCCTTGGGTTCTAACCTGTTGCCC (site TAGCTCCCTAG),0.279
22,TAGCTCCCTTGGGTTCTAACCTGTTGCCC (site TAGCTCCCTCG),0.115

row,Sequence,recombinant barcode read abundance (log10)
1,TAGCTCCCTTGGGTTCTAACCTGTTGCCC (site TAGCTCCCTGG),0.872
2,TAGCTCCCTTGGGTTCTAACCTGTTGCCC (site TAGCTCCCTTG),0.0924
3,TAGCTGACTTGGGTTCTAACCTGTTGCCC (site GTTTGACCTCC),0.136
4,TAGCTGACTTGGGTTCTAACCTGTTGCCC (site TAGCTGACTGG),0.932
5,TAGCTGTCTTGGGTTCTAACCTGTTGCGT (site AATCTGTCTAC),0.106
6,TAGCTGTCTTGGGTTCTAACCTGTTGCGT (site TAGCTGTCTAC),2.29
7,TAGGATACTTGGGTTCTAACCTGTTGCAC (site TAGGATACTAT),0.34
8,TAGGATACTTGGGTTCTAACCTGTTGCAC (site TAGGATACTCT),0.729
9,TAGGATACTTGGGTTCTAACCTGTTGCAC (site TAGGATACTGT),2.08
10,TAGGATACTTGGGTTCTAACCTGTTGCAC (site TAGGATACTTT),0.107
11,TAGGATACTTGGGTTCTAACCTGTTGCAG (site TAGGATACTAT),0.29
12,TAGGATACTTGGGTTCTAACCTGTTGCAG (site TAGGATACTCT),2.5
13,TAGGATACTTGGGTTCTAACCTGTTGCAG (site TAGGATACTGT),0.106
14,TAGGATACTTGGGTTCTAACCTGTTGCAG (site TAGGATACTTT),0.351
15,TAGGATACTTGGGTTCTAACCTGTTGCAT (site TAGGATACTAT),1.55
16,TAGGATACTTGGGTTCTAACCTGTTGCAT (site TAGGATACTCT),0.583
17,TAGGATACTTGGGTTCTAACCTGTTGCAT (site TAGGATACTGT),0.0987
18,TAGGATACTTGGGTTCTAACCTGTTGCAT (site TAGGATACTTT),0.0945
19,TAGGATACTTGGGTTCTAACCTGTTGCGT (site TAGGAAACTAC),0.314
20,TAGGATACTTGGGTTCTAACCTGTTGCGT (site TAGGACACTAC),0.928
